system: NOX; assay: H2DCF-DA fluorescence in TGF-β stimulated HUVEC; type: cell-based, human; conditions: % of the activity in control cells, 'usually'
Experimental: HUVEC are cultured in endothelial basal medium supplemented with hydrocortisone (1 μg/mL, CalBioChem), bovine brain extract (12 μg/mL), gentamicin (50 μg/mL, CalBioChem), amphotericin B (50 ng/mL, CalBioChem EGF (10 ng/mL, and 10% FCS until the fourth passage. When the fifth passage was started, cells were cultured with a lower concentration of FCS (2%) in the absence of EGF, if not indicated otherwise. All experiments were done with cells of the fifth passage. The cells were incubated with OxLDL (oxidized low-density lipoprotein) or its buffer as control for 24 h, before detection of 02 formation.
HUVEC were plated on coverslips and made quiescent overnight in 0.5% BSA before stimulation with TGF-β. Cells were loaded for 10 minutes with 5 μM CM-H2DCFDA in phenol-red-free medium in the dark and then treated with TGF-β (R&D Systems) in the presence or absence of compounds according to the invention. Cells were then visualized by immunofluorescence microscopy after fixation and staining of the nuclei with DAPI or examined live using confocal microscopy. DCF fluorescence was visualized at an excitation wavelength of 488 nm and emission at 515 to 540 nm. […] For calculation, the absorbance at […] was normalized to absorbance at […] for each individual well. […] NOX activities were expressed as % of the activity in control cells. […]

Row | SMILES | Residual activity of DPI-treated cells [%]
1 | c1ccc([I+]c2ccccc2)cc1 [DPI, Diphenyl-iodonium] | < 10

target: T1, NOX (Homo sapiens, UniProt P04839); assay: Amplex Red measurement of extracellular hydrogen peroxide (NOX activity) in DMSO-differentiated HL60 cells; type: cell-based; conditions: not given
T1 construct: NOX activity as measured by Amplex Red using DMSO-differentiated HL60 cells; endogenous in cells; host or cells: HL-60 cells differentiated to the neutrophil phenotype with Me2SO
T1 sequence (P04839 2-570 limits assumed): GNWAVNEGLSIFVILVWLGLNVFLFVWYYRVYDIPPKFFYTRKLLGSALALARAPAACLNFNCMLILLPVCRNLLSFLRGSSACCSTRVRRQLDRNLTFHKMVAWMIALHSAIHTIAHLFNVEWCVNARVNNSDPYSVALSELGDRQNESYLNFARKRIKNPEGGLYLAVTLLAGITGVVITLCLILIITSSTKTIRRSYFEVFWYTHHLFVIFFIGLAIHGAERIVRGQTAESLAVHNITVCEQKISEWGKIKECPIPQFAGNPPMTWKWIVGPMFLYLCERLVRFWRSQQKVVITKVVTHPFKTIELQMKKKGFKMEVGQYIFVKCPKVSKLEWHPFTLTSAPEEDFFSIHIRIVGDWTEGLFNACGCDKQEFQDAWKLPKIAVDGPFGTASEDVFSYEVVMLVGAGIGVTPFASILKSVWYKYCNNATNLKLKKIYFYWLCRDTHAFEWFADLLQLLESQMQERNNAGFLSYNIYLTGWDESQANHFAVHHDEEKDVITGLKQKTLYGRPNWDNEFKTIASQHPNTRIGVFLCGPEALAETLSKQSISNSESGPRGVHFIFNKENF
T1 sequence (P13498 1-195 partner): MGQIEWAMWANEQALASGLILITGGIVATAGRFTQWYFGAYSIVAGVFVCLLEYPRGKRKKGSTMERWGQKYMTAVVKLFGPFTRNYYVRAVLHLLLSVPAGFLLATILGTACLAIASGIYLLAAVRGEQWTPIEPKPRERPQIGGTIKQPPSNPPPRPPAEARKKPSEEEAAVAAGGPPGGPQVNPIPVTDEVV
Experimental: Human acute myeloid leukemia cell line HL-60 was cultured in RPMI 1640 (Invitrogen) supplemented with 10% heat-inactivated calf serum, 2 mM glutamine, 100 U/mL penicillin (Sigma), and 100 μg streptomycin (Sigma) at 37° C. under a humidified atmosphere of 5% CO2. HL60 differentiation to the neutrophil phenotype was triggered by adding Me2SO (final concentration 1.25% v/v for 6 days) to the culture medium.
Extracellular hydrogen peroxide was measured using Amplex UltraRed (Molecular Probes). Cells were trypsinized (1× Trypsin-EDTA), collected by centrifugation, and resuspended in HBSS supplemented with 1% glucose. Cells were seeded into black 96-well plates at a density of 50′000 cells in 200 μl testing buffer (HBSS 1% glucose containing 0.005 U/mL horseradish peroxidase (Roche) and 50 μM Amplex Red in the presence or absence of compounds according to the invention. As a control, DPI was included at a final concentration of 10 μM The plates were placed in the fluorescent Optima Fluorescent plate reader and kept at 37° C. during 20 min. Fluorescence was measured for 15 min with excitation and emission wavelengths of 544 nm and 590 nm respectively. NOX activities were expressed as % of the activity in control cells. Residual activity of DPI-treated cells was usually <10%. […]
The Table 2 below summarizes the IC50 of NOX activity as measured by Amplex Red using DMSO-differentiated HL60 cells as described above: […]

Row | IC50 [µM] | SMILES
2 | < 5 | CCOCCCn1c(C)c2c(=O)n(-c3nc(-c4ccccc4)cs3)[nH]c2cc1=O [Compound 7, 5-(3-ethoxypropyl)-4-methyl-2-(4-phenyl-1,3-thiazol-2-yl)-1H-pyrazolo[4,3-c]pyridine-3,6(2H,5H)-dione]
3 | < 5 | Cc1c2c(=O)n(-c3ccccc3Cl)[nH]c2cc(=O)n1C [Compound 8, 2-(2-chlorophenyl)-4,5-dimethyl-1H-pyrazolo[4,3-c]pyridine-3,6(2H,5H)-dione]
4 | < 5 | Cc1c2c(=O)n(-c3nc(-c4ccccc4)cs3)[nH]c2cc(=O)n1Cc1cccc(Oc2ccccc2)c1 [Compound 10, 4-methyl-5-(3-phenoxybenzyl)-2-(4-phenyl-1,3-thiazol-2-yl)-1H-pyrazolo[4,3-c]pyridine-3,6(2H,5H)-dione]
5 | < 5 | Cc1c2c(=O)n(-c3ccccc3Cl)[nH]c2cc(=O)n1NC(=O)COc1ccc(F)cc1 [Compound 13, N-[2-(2-chlorophenyl)-4-methyl-3,6-dioxo-1,2,3,6-tetra hydro-5H-pyrazolo[4,3-c]pyridin-5-yl]-2-(4-fluorophenoxy)acetamide]
6 | < 5 | Cc1c2c(=O)n(-c3ccccc3F)[nH]c2cc(=O)n1Cc1cccc(N2CCOCC2)n1 [Compound 20, 2-(2-fluorophenyl)-4-methyl-5-[(6-morpholin-4-ylpyridin-2-yl)methyl]-1H-pyrazolo[4,3-c]pyridine-3,6(2H,5H)-dione]
7 | < 5 | Cc1c2c(=O)n(-c3cccc(Cl)c3)[nH]c2cc(=O)n1CCCC(=O)N1CCN(C)CC1 [Compound 28, 2-(3-chlorophenyl)-4-methyl-5-[4-(4-methylpiperazin-1-yl)-4-oxobutyl]-1H-pyrazolo[4,3-c]pyridine-3,6(2H,5H)-dione]
8 | < 5 | Cc1c2c(=O)n(-c3ccccc3F)[nH]c2cc(=O)n1CC(=O)NCc1ccccn1 [Compound 30, 2-[2-(2-fluorophenyl)-4-methyl-3,6-dioxo-1,2,3,6-tetra hydro-5H-pyrazolo[4,3-c]pyridin-5-yl]-N-(pyridin-2-ylmethyl)acetamide]

Continued, compound first:

Row | SMILES | IC50 [µM]
9 | Cc1c2c(=O)n(-c3ccccc3Cl)[nH]c2cc(=O)n1Cc1ccccc1N1CCOCC1 [Compound 1, 2-(2-chlorophenyl)-4-methyl-5-(2-morpholin-4-ylbenzyl)-1H-pyrazolo[4,3-c]pyridine-3,6(2H,5H)-dione] | < 5
10 | Cc1c2c(=O)n(-c3ccccc3Cl)[nH]c2cc(=O)n1Cc1ccc(CN2CCN(C)CC2)cc1 [Compound 2, 2-(2-chlorophenyl)-4-methyl-5-{4-[(4-methylpiperazin-1-yl)methyl]benzyl}-1H-pyrazolo[4,3-c]pyridine-3,6(2H,5H)-dione] | < 5
11 | Cc1c2c(=O)n(-c3ccccc3Cl)[nH]c2cc(=O)n1CC(c1ccccc1)N1CCOCC1 (centres unmarked) [Compound 3, 2-(2-chlorophenyl)-4-methyl-5-(2-morpholin-4-yl-2-phenylethyl)-1H-pyrazolo[4,3-c]pyridine-3,6(2H,5H)-dione] | < 5
12 | COc1cccc(CCn2c(C)c3c(=O)n(-c4ccccc4Cl)[nH]c3cc2=O)c1 [Compound 4, 2-(2-chlorophenyl)-5-[2-(3-methoxyphenyl)ethyl]-4-methyl-1H-pyrazolo[4,3-c]pyridine-3,6(2H,5H)-dione] | < 5

system: NOX; assay: Chemiluminescence (Luminol) ROS measurement in cells; type: cell-based, human; conditions: % of the activity in control cells, 'usually'
Experimental: ROS was measured using the chemiluminescent probe luminol. Cells were cultured and plated as for Amplex Red except that the Amplex Red agent was replaced by 10 μg/mL luminol (Sigma 09235). Light emission was recorded continuously at 37° C. for 60 minutes using the luminescence function of the FluoStar Optima fluorescent plate reader. The mean of the four blank values was subtracted from each corrected value for each time point. NOX activities were expressed as % of the activity in control cells. Residual activity of DPI-treated cells was usually <10%.

Row | SMILES | Residual activity of DPI-treated cells [%]
13 | c1ccc([I+]c2ccccc2)cc1 [DPI, Diphenyl-iodonium] | < 10

system: NOX; assay: Nitroblue tetrazolium (NBT) superoxide test in cells; type: cell-based, human; conditions: DPI 10 μM, % of the activity in control cells, 'usually'
Experimental: Intracellular and extracellular superoxide was measured by a colorimetric technique using a quantitative nitroblue tetrazolium (NBT) test. SOD-inhibitable conversion of NBT to formazan, a fine blue precipitate, in the presence of superoxide anion was measured using Fluostar Optima spectrometer (BMG labtech). Following incubation with appropriate stimuli, cells were trypsinized (1× Trypsin-EDTA), collected by centrifugation, and washed with PBS to remove medium. 5×10^5 cells were plated on 48-well plates and incubated in Hank's balanced salt solution containing 0.5 mg/mL NBT with or without 800 U/mL SOD in the presence or absence of compounds according to the invention. As a control, DPI was included at a final concentration of 10 μM. After 2.5 h, cells were fixed and washed with methanol to remove non reduced NBT. The reduced formazan was then dissolved in 230 μl of 2M potassium hydroxide and in 280 μl of dimethylsulfoxide. The absorption was measured at 630 nm. For calculation, the absorbance at 630 nm was normalized for each individual well. The mean of the four blank values was subtracted from each corrected value for each time point. NOX activities were expressed as % of the activity in control cells. Residual activity of DPI-treated cells was usually <10%.

Row | SMILES | Residual activity of DPI-treated cells [%]
14 | c1ccc([I+]c2ccccc2)cc1 [DPI, Diphenyl-iodonium] | < 10
